In ChEMBL document CHEMBL6103583, “Purified Monascus Pigments: Biological Activities and Mechanisms of Action” (J Nat Prod, 2025):
Values after ≈ are worked out from the molar mass of the structure shown.

Test system: Enterococcus faecalis
Assay: Antibacterial activity against Enterococcus faecalis KCCM 11814 assessed as reduction in bacterial growth incubated for 12 hrs by broth micro-dilution method
Assay type: functional
Conditions: not given

SMILES | MIC [µg/mL]
N[C@H](Cc1ccc(O)cc1)C(=O)O | 4 (≈ 22.1 µM)
N[C@@H](CS)C(=O)O [CYSTEINE] | 4 (≈ 33 µM)
N[C@H](Cc1ccccc1)C(=O)O [D-PHENYLALANINE] | 8 (≈ 48.4 µM)
N[C@@H](Cc1ccccc1)C(=O)O [PHENYLALANINE] | 4 (≈ 24.2 µM)
N[C@@H](Cc1ccc(O)cc1)C(=O)O [TYROSINE] | 8 (≈ 44.2 µM)

Test system: Staphylococcus aureus
Assay: Antibacterial activity against Staphylococcus aureus […] assessed as reduction in bacterial growth incubated for 12 hrs by broth micro-dilution method
Assay type: functional
Conditions: not given

SMILES | MIC [µg/mL]
N[C@H](Cc1ccc(O)cc1)C(=O)O | 8 (≈ 44.2 µM)
N[C@@H](CS)C(=O)O [CYSTEINE] | 16 (≈ 132 µM)
N[C@H](Cc1ccccc1)C(=O)O [D-PHENYLALANINE] | 8 (≈ 48.4 µM)
N[C@@H](Cc1ccccc1)C(=O)O [PHENYLALANINE] | 8 (≈ 48.4 µM)
N[C@@H](Cc1ccc(O)cc1)C(=O)O [TYROSINE] | 8 (≈ 44.2 µM)

Test system: Klebsiella aerogenes
Assay: Antibacterial activity against Enterobacter aerogenes KCCM 12177 assessed as reduction in bacterial growth incubated for 12 hrs by broth micro-dilution method
Assay type: functional
Conditions: not given

SMILES | MIC [µg/mL]
N[C@H](Cc1ccc(O)cc1)C(=O)O | 16 (≈ 88.3 µM)
N[C@@H](CS)C(=O)O [CYSTEINE] | 8 (≈ 66 µM)
N[C@H](Cc1ccccc1)C(=O)O [D-PHENYLALANINE] | 16 (≈ 96.9 µM)
N[C@@H](Cc1ccccc1)C(=O)O [PHENYLALANINE] | 16 (≈ 96.9 µM)
N[C@@H](Cc1ccc(O)cc1)C(=O)O [TYROSINE] | 4 (≈ 22.1 µM)

Test system: Shigella sonnei
Assay: Antibacterial activity against Shigella sonnei KCCM 40253 assessed as reduction in bacterial growth incubated for 12 hrs by micro-dilution method
Assay type: functional
Conditions: not given

SMILES | MIC [µg/mL]
N[C@H](Cc1ccc(O)cc1)C(=O)O | 8 (≈ 44.2 µM)
N[C@@H](CS)C(=O)O [CYSTEINE] | 16 (≈ 132 µM)
N[C@H](Cc1ccccc1)C(=O)O [D-PHENYLALANINE] | 16 (≈ 96.9 µM)
N[C@@H](Cc1ccccc1)C(=O)O [PHENYLALANINE] | 16 (≈ 96.9 µM)
N[C@@H](Cc1ccc(O)cc1)C(=O)O [TYROSINE] | 32 (≈ 177 µM)

Test system: Haemophilus influenzae
Assay: Antibacterial activity against Haemophilus influenzae KCCM 11903 assessed as reduction in bacterial growth incubated for 12 hrs by broth micro-dilution method
Assay type: functional
Conditions: not given

SMILES | MIC [µg/mL]
N[C@H](Cc1ccc(O)cc1)C(=O)O | 16 (≈ 88.3 µM)
N[C@@H](CS)C(=O)O [CYSTEINE] | 8 (≈ 66 µM)
N[C@H](Cc1ccccc1)C(=O)O [D-PHENYLALANINE] | 16 (≈ 96.9 µM)
N[C@@H](Cc1ccccc1)C(=O)O [PHENYLALANINE] | 16 (≈ 96.9 µM)
N[C@@H](Cc1ccc(O)cc1)C(=O)O [TYROSINE] | 32 (≈ 177 µM)

Test system: Penicillium citrinum
Assay: Antifungal activity against Penicillium citrinum KCCM 11663 assessed as reduction in […] incubated for 12 hrs by micro-dilution method
Assay type: functional
Conditions: not given

SMILES | MIC [µg/mL]
N[C@H](Cc1ccc(O)cc1)C(=O)O | 4 (≈ 22.1 µM)
N[C@@H](CS)C(=O)O [CYSTEINE] | 32 (≈ 264 µM)
N[C@H](Cc1ccccc1)C(=O)O [D-PHENYLALANINE] | 8 (≈ 48.4 µM)
N[C@@H](Cc1ccccc1)C(=O)O [PHENYLALANINE] | 8 (≈ 48.4 µM)
N[C@@H](Cc1ccc(O)cc1)C(=O)O [TYROSINE] | 8 (≈ 44.2 µM)

Test system: Escherichia coli
Assay: Antibacterial activity against Escherichia coli assessed as reduction in bacterial growth by broth microdilution method
Assay type: functional
Conditions: not given

SMILES | MIC [µg/mL]
N[C@@H](Cc1ccccc1)C(=O)O [PHENYLALANINE] | 16 (≈ 96.9 µM)

Test system: Candida albicans
Assay: Antifungal activity against Candida albicans KCCM 10231 assessed as reduction in […] incubated for 12 hrs by micro-dilution method
Assay type: functional
Conditions: not given

SMILES | MIC [µg/mL]
N[C@H](Cc1ccc(O)cc1)C(=O)O | 16 (≈ 88.3 µM)
N[C@@H](CS)C(=O)O [CYSTEINE] | 16 (≈ 132 µM)
N[C@H](Cc1ccccc1)C(=O)O [D-PHENYLALANINE] | 8 (≈ 48.4 µM)
N[C@@H](Cc1ccccc1)C(=O)O [PHENYLALANINE] | 8 (≈ 48.4 µM)
N[C@@H](Cc1ccc(O)cc1)C(=O)O [TYROSINE] | 8 (≈ 44.2 µM)

Test system: Escherichia coli
Assay: Antibacterial activity against Escherichia coli KCCM 11234 assessed as reduction in bacterial growth incubated for 12 hrs by broth micro-dilution method
Assay type: functional
Conditions: not given

SMILES | MIC [µg/mL]
N[C@@H](CS)C(=O)O [CYSTEINE] | 64 (≈ 528 µM)
N[C@H](Cc1ccccc1)C(=O)O [D-PHENYLALANINE] | 8 (≈ 48.4 µM)
N[C@@H](Cc1ccccc1)C(=O)O [PHENYLALANINE] | 8 (≈ 48.4 µM)

Test system: Bacillus subtilis
Assay: Antibacterial activity against Bacillus subtilis KCCM 11316 assessed as reduction in bacterial growth incubated for 12 hrs by broth micro-dilution method
Assay type: functional
Conditions: not given

SMILES | MIC [µg/mL]
N[C@H](Cc1ccc(O)cc1)C(=O)O | 4 (≈ 22.1 µM)
N[C@@H](CS)C(=O)O [CYSTEINE] | 32 (≈ 264 µM)
N[C@H](Cc1ccccc1)C(=O)O [D-PHENYLALANINE] | 8 (≈ 48.4 µM)
N[C@@H](Cc1ccccc1)C(=O)O [PHENYLALANINE] | 8 (≈ 48.4 µM)
N[C@@H](Cc1ccc(O)cc1)C(=O)O [TYROSINE] | 4 (≈ 22.1 µM)

Test system: Penicillium digitatum
Assay: Antifungal activity against Penicillium digitatum KCCM 60140 assessed as reduction in […] incubated for 12 hrs by micro-dilution method
Assay type: functional
Conditions: not given

SMILES | MIC [µg/mL]
N[C@H](Cc1ccc(O)cc1)C(=O)O | 32 (≈ 177 µM)
N[C@@H](CS)C(=O)O [CYSTEINE] | 32 (≈ 264 µM)
N[C@H](Cc1ccccc1)C(=O)O [D-PHENYLALANINE] | 16 (≈ 96.9 µM)
N[C@@H](Cc1ccccc1)C(=O)O [PHENYLALANINE] | 16 (≈ 96.9 µM)
N[C@@H](Cc1ccc(O)cc1)C(=O)O [TYROSINE] | 32 (≈ 177 µM)

Test system: Staphylococcus aureus
Assay: Antibacterial activity against Staphylococcus aureus KCCM 11817 assessed as reduction in bacterial growth incubated for 12 hrs by broth micro-dilution method
Assay type: functional
Conditions: not given

SMILES | MIC [µg/mL]
N[C@H](Cc1ccc(O)cc1)C(=O)O | 16 (≈ 88.3 µM)
N[C@@H](CS)C(=O)O [CYSTEINE] | 16 (≈ 132 µM)
N[C@H](Cc1ccccc1)C(=O)O [D-PHENYLALANINE] | 16 (≈ 96.9 µM)
N[C@@H](Cc1ccccc1)C(=O)O [PHENYLALANINE] | 16 (≈ 96.9 µM)
N[C@@H](Cc1ccc(O)cc1)C(=O)O [TYROSINE] | 8 (≈ 44.2 µM)

Test system: Salmonella typhimurium
Assay: Antibacterial activity against Salmonella Typhimurium KCCM 11806 assessed as reduction in bacterial growth incubated for 12 hrs by micro-dilution method
Assay type: functional, Salmonella enterica subsp. enterica serovar Typhimurium
Conditions: Salmonella enterica

SMILES | MIC [µg/mL]
N[C@H](Cc1ccc(O)cc1)C(=O)O | 4 (≈ 22.1 µM)
N[C@@H](CS)C(=O)O [CYSTEINE] | 8 (≈ 66 µM)
N[C@H](Cc1ccccc1)C(=O)O [D-PHENYLALANINE] | 8 (≈ 48.4 µM)
N[C@@H](Cc1ccccc1)C(=O)O [PHENYLALANINE] | 4 (≈ 24.2 µM)
N[C@@H](Cc1ccc(O)cc1)C(=O)O [TYROSINE] | 16 (≈ 88.3 µM)

Test system: Proteus vulgaris
Assay: Antibacterial activity against Proteus vulgaris KCCM 11906 assessed as reduction in bacterial growth incubated for 12 hrs by broth micro-dilution method
Assay type: functional
Conditions: not given

SMILES | MIC [µg/mL]
N[C@H](Cc1ccc(O)cc1)C(=O)O | 16 (≈ 88.3 µM)
N[C@@H](CS)C(=O)O [CYSTEINE] | 8 (≈ 66 µM)
N[C@H](Cc1ccccc1)C(=O)O [D-PHENYLALANINE] | 16 (≈ 96.9 µM)
N[C@@H](Cc1ccccc1)C(=O)O [PHENYLALANINE] | 16 (≈ 96.9 µM)
N[C@@H](Cc1ccc(O)cc1)C(=O)O [TYROSINE] | 32 (≈ 177 µM)

Test system: Aspergillus niger
Assay: Antifungal activity against Aspergillus niger KCCM 11239 assessed as reduction in […] incubated for 12 hrs by micro-dilution method
Assay type: functional
Conditions: not given

SMILES | MIC [µg/mL]
N[C@H](Cc1ccc(O)cc1)C(=O)O | 4 (≈ 22.1 µM)
N[C@@H](CS)C(=O)O [CYSTEINE] | 8 (≈ 66 µM)
N[C@H](Cc1ccccc1)C(=O)O [D-PHENYLALANINE] | 8 (≈ 48.4 µM)
N[C@@H](Cc1ccccc1)C(=O)O [PHENYLALANINE] | 8 (≈ 48.4 µM)
N[C@@H](Cc1ccc(O)cc1)C(=O)O [TYROSINE] | 4 (≈ 22.1 µM)

Test system: Escherichia coli
Assay: Antibacterial activity against Escherichia coli KCCM 11234 assessed as reduction in bacterial growth incubated
Assay type: functional
Conditions: not given

SMILES | MIC [µg/mL]
N[C@@H](CS)C(=O)O [CYSTEINE] | 64 (≈ 528 µM)
N[C@H](Cc1ccccc1)C(=O)O [D-PHENYLALANINE] | 8 (≈ 48.4 µM)
N[C@@H](Cc1ccccc1)C(=O)O [PHENYLALANINE] | 8 (≈ 48.4 µM)

Test system: not listed separately
Assay: Antibacterial activity against Salmonella choleraesuis KCCM 11806 assessed as reduction in bacterial growth
Assay type: functional, Salmonella enterica subsp. enterica serovar Choleraesuis
Conditions: Salmonella enterica

SMILES | MIC [µg/mL]
N[C@H](Cc1ccc(O)cc1)C(=O)O | 4 (≈ 22.1 µM)
N[C@@H](CS)C(=O)O [CYSTEINE] | 16 (≈ 132 µM)
N[C@H](Cc1ccccc1)C(=O)O [D-PHENYLALANINE] | 4 (≈ 24.2 µM)
N[C@@H](Cc1ccccc1)C(=O)O [PHENYLALANINE] | 8 (≈ 48.4 µM)
N[C@@H](Cc1ccc(O)cc1)C(=O)O [TYROSINE] | 8 (≈ 44.2 µM)

Test system: Pseudomonas aeruginosa
Assay: Antibacterial activity against Pseudomonas aeruginosa KCCM 11328 assessed as reduction in bacterial growth incubated for 12 hrs by micro-dilution method
Assay type: functional
Conditions: not given

SMILES | MIC [µg/mL]
N[C@H](Cc1ccc(O)cc1)C(=O)O | 16 (≈ 88.3 µM)
N[C@@H](CS)C(=O)O [CYSTEINE] | 16 (≈ 132 µM)
N[C@H](Cc1ccccc1)C(=O)O [D-PHENYLALANINE] | 16 (≈ 96.9 µM)
N[C@@H](Cc1ccccc1)C(=O)O [PHENYLALANINE] | 8 (≈ 48.4 µM)
N[C@@H](Cc1ccc(O)cc1)C(=O)O [TYROSINE] | 8 (≈ 44.2 µM)
